Assay results from US20240336573A1, “COMPOUND FOR THE TREATMENT AND PROPHYLAXIS OF INFECTIOUS DISEASES” (Eberhard Karls Universität Tübingen Medizinische Fakultät, priority 2021, published 2024).

How the values were obtained:
[1] = molecular target: SurA (Escherichia coli, UniProt P0ABZ6); experiment: Luciferase-based SurA activity assay (primary assay, in-house); format: biochemical, E. coli; conditions: n/d: no signal detected; for Primary Assay ICmax: QHL-10 derivatives, dose response up to 125 μM; for Primary Assay Amplitude: amplitude of signal
Source text: The biological function of SurA is to bind and to keep outer membrane proteins that have reached the periplasm in an unfolded but folding-competent state. The inventors' assay is based on this interaction and uses firefly Luciferase (fLuc) as a non-native substrate. […] This is exploited in the assay (FIG. 3). The loss of tertiary structure of fLuc leads to the exposure of binding sites for SurA. It is known that SurA binds selectively to a special group of substrates. These substrates have in common the specific patterns of hydrophobic amino acids that are highly enriched in the beta strands of integral outer membrane proteins. These motifs are present in OMPs of all Gram-negative bacteria and in fLuc as well. Upon mild heat treatment of fLuc and its subsequent partial unfolding, fLuc is accepted as a substrate by SurA. Of note, these intermediates served as reporter substrates to determine the activity of a […] folding chaperone. […] This interaction remains stable upon temperature reduction. Next, the temperature of the assay is reduced to room temperature and luciferase activity is subsequently measured by addition of Luciferin and ATP. In conditions without SurA, fLuc will refold into its active conformation resulting in a luminescence signal.
In short, the Luciferase based SurA activity assay was performed in SurA Activity Assay Buffer (40 mM HEPES pH 7.4, 20 mM MgSO4, 0.5 g/I BSA). SurA aliquots were thawn at RT, activated by mild heat treatment and cooled down to RT for 10 min. […] Solution A containing 10 mM ATP as well as 0.3 mM Luciferin (Promega Beetle Luciferin, Potassium Salt) in water was prepared. Luciferase working solution was prepared by diluting 1 ml Luciferase working stock (100 nM) with 9 ml assay buffer. 33 μl of the protein solution were added to every 2nd row of a well of a 384-well PS, white, flat bottom plate. […] Subsequently, 2 μl of compound in DMSO were added in quadruplicates (4 wells each of protein solution and buffer controls). These compound solutions could contain either various compounds or different dilutions of the same compound allowing screening inhibitor activity in a dose dependent manner. After compound addition, plates were incubated 15 min at RT. After this incubation, 5 μl of Luciferase working solution were added to each well. Next, the plates were incubated 25 min at 38° C. to partially unfold the Luciferase. Subsequently, the assay plate was cooled for 5 min at 4° C. followed by 10 min incubation at RT prior to luminescence measurement. Luminescence was measured in a TECAN infinite M200 pro plate reader for each well individually after injection of 10 μl Solution A.

[2] = tested on: E. coli ATCC 25922; experiment: Sensitizer MIC assay (vancomycin); format: cell-based; conditions: vancomycin; 100 μM compound; type strain
Procedure: (§1) To test for the sensitizer properties of the compounds, the inventors then performed a sensitizer MIC assay. To this end, E. coli BW25113, E. coli JW2496-3, and E. coli ATCC 25922 inocula were prepared as described above. Each well of a 96-well plate was prefilled with a fixed compound concentration of 100 μM and a dilution series of Vancomycin ranging from […]. A sensitizing effect was defined as reduction of the MIC value of Vancomycin of the respective test strain.

[3] = tested on: E. coli BW25113; experiment: Sensitizer MIC assay (vancomycin); format: cell-based; conditions: 100 μM compound, wildtype strain
Procedure: as §1

[4] = tested on: E. coli JW2496-3; experiment: Sensitizer MIC assay (vancomycin); format: cell-based; conditions: 100 μM compound, more susceptible strain
Procedure: as §1

[5] = tested on: E. coli BW25113, E. coli JW2496-3, E. coli ATCC 25922; experiment: Minimal inhibitory concentration assay (bactericidal/bacteriostatic assessment); format: cell-based; conditions: dilution series 100-1.7 μM
Source text: The intended effect of a SurA inhibitor should be the induction of a disturbance of the outer membrane composition resulting in an increased susceptibility to antibiotic treatment. Of note, Vancomycin is typically not used to treat infections with Gram-negative bacteria, because it is excluded by the OM and not efficient at concentrations that could be achieved in patients. However, at appropriate dosing in vitro it can be used to detect outer membrane defects. For determining a potential sensitizing effect of Vancomycin treatment, the inventors first tested whether the compounds at hand were bactericidal per se. Therefore, the inventors performed a minimal inhibitory concentration (MIC) assay. To this end, 5 ml overnight cultures of E. coli BW25113 (Keio-Collection reference strain), E. coli JW2496-3 (Keio-Collection single gene knockout for bamB, which suffers from decreased outer membrane integrity) and E. coli ATCC 25922 (a reference strain recommended for antibiotic susceptibility testing) were grown in Mueller Hinton Broth, Cation adjusted (MHB-II). The next day, the OD was adjusted to obtain 1*10^8 CFU/ml using fresh MHB-II. Next, this bacterial solution was diluted 1:100 into 20 ml fresh MHB-II. 50 μl of this bacteria solution were then transferred into each well of a 96-well plate prefilled with 50 μl MHB-II supplemented with the desired compounds. The test plates for the bactericidal assessment contained dilution series of the compounds from 100-1.7 μM. Plates were sealed with a gas permeable membrane and incubated o/n at 37° C. in a humid chamber without shaking. After o/n incubation, bacterial growth was quantified by measuring the optical density at 600 nm wavelength in a multiplate reader. Compounds showing no growth inhibition at 100 μM were considered non-bactericidal. Of note, the bactericidal effect of Vancomycin was assessed similarly for each test strain using Vancomycin concentrations ranging from […]. This was done to identify a Vancomycin concentration at which the strains just managed to survive.

SurA, sequence (P0ABZ6 21-428): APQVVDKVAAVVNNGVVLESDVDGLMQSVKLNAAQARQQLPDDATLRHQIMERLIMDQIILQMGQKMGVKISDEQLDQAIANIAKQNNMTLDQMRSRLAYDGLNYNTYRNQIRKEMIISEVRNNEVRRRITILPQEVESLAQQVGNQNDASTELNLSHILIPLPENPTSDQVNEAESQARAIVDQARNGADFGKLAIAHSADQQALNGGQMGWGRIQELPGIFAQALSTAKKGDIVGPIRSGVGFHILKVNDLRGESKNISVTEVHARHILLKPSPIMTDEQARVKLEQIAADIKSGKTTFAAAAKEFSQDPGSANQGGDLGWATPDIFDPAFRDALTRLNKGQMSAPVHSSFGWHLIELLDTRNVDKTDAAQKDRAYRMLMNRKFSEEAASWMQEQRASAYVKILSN

NC(=O)c1nc(-c2ccc(F)c(N)c2)[nH]c1NC(=O)c1ccc(-c2ccccc2)cc1 [Compound 3d, 5-([1,1′-biphenyl]-4-carboxamido)-2-(3-amino-4-fluorophenyl)-1H-imidazole-4-carboxamide]
Primary Assay ICmax [1]: 16 µM
Primary Assay Amplitude [1]: high
Sensitizer MIC Assay (log2-fold reduction of MIC in presence of compound) ATCC25922 [2]: 0 log2-fold
Sensitizer MIC Assay (log2-fold reduction of MIC in presence of compound) BW25113 [3]: 0 log2-fold
Sensitizer MIC Assay (log2-fold reduction of MIC in presence of compound) JW2496-3 [4]: 0 log2-fold
Bacteriostatic MIC Assay Result [5]: non-bacteriostatic

CCOc1ccc2ccccc2c1C(=O)Nc1[nH]c(-c2cccc(N)c2)nc1C(N)=O [Compound 3e, 2-(3-aminophenyl)-5-(2-ethoxy-1-naphthamido)-1H-imidazole-4-carboxamide]
Primary Assay ICmax [1]: 64 µM
Primary Assay Amplitude [1]: low
Sensitizer MIC Assay (log2-fold reduction of MIC in presence of compound) ATCC25922 [2]: 0 log2-fold
Sensitizer MIC Assay (log2-fold reduction of MIC in presence of compound) BW25113 [3]: 0 log2-fold
Sensitizer MIC Assay (log2-fold reduction of MIC in presence of compound) JW2496-3 [4]: 0 log2-fold
Bacteriostatic MIC Assay Result [5]: non-bacteriostatic

CCOc1ccc2ccccc2c1C(=O)Nc1[nH]c(-c2ccccc2O)nc1C(N)=O [Compound 3f, 5-(2-ethoxy-1-naphthamido)-2-(2-hydroxyphenyl)-1H-imidazole-4-carboxamide]
Primary Assay ICmax [1]: 16 µM
Primary Assay Amplitude [1]: low
Sensitizer MIC Assay (log2-fold reduction of MIC in presence of compound) ATCC25922 [2]: 1 log2-fold
Sensitizer MIC Assay (log2-fold reduction of MIC in presence of compound) BW25113 [3]: 1 log2-fold
Sensitizer MIC Assay (log2-fold reduction of MIC in presence of compound) JW2496-3 [4]: 2 log2-fold
Bacteriostatic MIC Assay Result [5]: non-bacteriostatic

CCOc1ccc2ccccc2c1C(=O)Nc1[nH]c(-c2ccc(F)c(N)c2)nc1C(N)=O [Compound 3g, 2-(3-amino-4-fluorophenyl)-5-(2-ethoxy-1-naphthamido)-1H-imidazole-4-carboxamide]
Primary Assay ICmax [1]: 64 µM
Primary Assay Amplitude [1]: low
Sensitizer MIC Assay (log2-fold reduction of MIC in presence of compound) ATCC25922 [2]: 0 log2-fold
Sensitizer MIC Assay (log2-fold reduction of MIC in presence of compound) BW25113 [3]: 0 log2-fold
Sensitizer MIC Assay (log2-fold reduction of MIC in presence of compound) JW2496-3 [4]: 0 log2-fold
Bacteriostatic MIC Assay Result [5]: non-bacteriostatic
